According to patent US9512107B2, “Therapeutically active compositions and their methods of use” (Agios Pharmaceuticals, Inc., priority 2012, dated 2016):
Positions count from the first letter of the chain named. Read-outs that look alike come from different tables or passages of the source.

Assays:
[1] = molecular target: T1, IDH2 R140Q (Homo sapiens, UniProt P48735, R140Q); test: IDH2 R140Q enzymatic assay (cofactor depletion, similar format); type: biochemical; conditions: read-out: Enz R140Q
T1 sequence (P48735 40-452 R140Q): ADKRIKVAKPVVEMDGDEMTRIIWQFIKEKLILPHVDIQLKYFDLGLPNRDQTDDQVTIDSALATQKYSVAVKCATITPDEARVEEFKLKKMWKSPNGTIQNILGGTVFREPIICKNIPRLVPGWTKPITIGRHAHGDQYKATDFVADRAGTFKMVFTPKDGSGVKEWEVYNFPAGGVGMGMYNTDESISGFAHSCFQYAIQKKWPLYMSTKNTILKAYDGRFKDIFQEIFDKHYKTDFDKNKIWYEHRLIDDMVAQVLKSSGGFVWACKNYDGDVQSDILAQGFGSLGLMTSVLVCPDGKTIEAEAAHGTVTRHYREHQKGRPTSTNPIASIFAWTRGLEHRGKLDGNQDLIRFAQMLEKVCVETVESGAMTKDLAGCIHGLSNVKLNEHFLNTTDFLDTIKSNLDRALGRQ

[2] = molecular target: T2, IDH2 R172K (Homo sapiens, UniProt P48735, R172K); test: IDH2 R172K enzymatic assay (NADPH cofactor depletion, diaphorase/resazurin readout); type: biochemical; conditions: read-out: Enz R172K
T2 sequence (P48735 40-452 R172K): T1 sequence (P48735 40-452 R140Q) with Q101R, R133K
Procedure, shortened: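 Residual NADPH is read out as resorufin fluorescence after quenching with 36 μg/ml diaphorase and 60 μM resazurin in stop mix. The stop follows a 1 h room-temperature reaction started by a substrate mix of NADPH (50 μM) and α-KG (6.3 mM), with compound preincubated with enzyme for 1 h beforehand.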

[3] = tested on: U87MG pLVX-IDH2 R140Q-neo cells; test: U87MG pLVX-IDH2 R140Q-neo cell based assay, 2-HG in media by LC-MS at 48 hours
Procedure, shortened: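 2-HG secreted into the medium was measured by LC-MS after 48 h of compound treatment (0.2% DMSO final) of U87MG pLVX-IDH2 R140Q-neo cells in DMEM/10% FBS. The same wells were assayed at 72 h by CellTiter-Glo luminescence for effects on growth.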

Row | SMILES | IC50 [1] | IC50 [2] | IC50 [3] | IC50 ([3]; Homo sapiens, U-87 MG)
1 | OC1CC1Nc1nc(Nc2ccnc(C(F)(F)F)c2)nc(-c2cccc(C(F)(F)F)n2)n1 (stereo not drawn) [Compound 569, 2-[4-(6-Trifluoromethyl-pyridin-2-yl)-6-(2-trifluoromethyl-pyridin-4-ylamino)-[1,3,5]triazin-2-ylamino]-cyclopropanol] | 100 to 1000 nM | 100 to 1000 nM | 100 to 1000 nM | 
2 | CC(C)Nc1nc(Nc2cc(F)cc(S(C)(=O)=O)c2)nc(-c2cccc(C(F)(F)F)n2)n1 [Compound 570, N2-(3-fluoro-5-(methylsulfonyl)phenyl)-N4-isopropyl-6-(6-(trifluoromethyl)pyridin-2-yl)-1,3,5-triazine-2,4-diamine] | 100 to 1000 nM | < 100 nM |  | < 100 nM
3 | CC(C)CNc1nc(Nc2cccc(S(C)(=O)=O)c2)nc(-c2cccc(C(F)(F)F)n2)n1 [Compound 571, N2-isobutyl-N4-(3-(methylsulfonyl)phenyl)-6-(6-(trifluoromethyl)pyridin-2-yl)-1,3,5-triazine-2,4-diamine] | 100 to 1000 nM | 100 to 1000 nM |  | < 100 nM
4 | CC(C)Nc1nc(Nc2ccnc(Cl)c2)nc(-c2cccc(C(F)(F)F)n2)n1 [Compound 572, N2-(2-chloropyridin-4-yl)-N4-isopropyl-6-(6-(trifluoromethyl)pyridin-2-yl)-1,3,5-triazine-2,4-diamine] | 100 to 1000 nM | 100 to 1000 nM |  | < 100 nM
5 | CCC(=O)c1cc(Nc2nc(NC(C)C)nc(-c3cccc(C(F)(F)F)n3)n2)ccn1 [Compound 574, 1-{4-[4-Isopropylamino-6-(6-trifluoromethyl-pyridin-2-yl)-[1,3,5]triazin-2-ylamino]-pyridin-2-yl}-propan-1-one] | 100 to 1000 nM | < 100 nM |  | < 100 nM
6 | CC(C)Nc1nc(Nc2ccnc(C(C)(F)F)c2)nc(-c2cccc(C(C)(F)F)n2)n1 [Compound 576, 6-[6-(1,1-Difluoro-ethyl)-pyridin-2-yl]-N-[2-(1,1-difluoro-ethyl)-pyridin-4-yl]-N′-isopropyl-[1,3,5]triazine-2,4-diamine] | 100 to 1000 nM | 100 to 1000 nM |  | < 100 nM
7 | COC(=O)N1CCC(Nc2nc(Nc3ccnc(C(F)(F)F)c3)nc(-c3cccc(C(F)(F)F)n3)n2)CC1 [Compound 577, 4-[4-(6-Trifluoromethyl-pyridin-2-yl)-6-(2-trifluoromethyl-pyridin-4-ylamino)-[1,3,5]triazin-2-ylamino]-piperidine-1-carboxylic acid methyl ester] | 1000 to 10000 nM | 100 to 1000 nM |  | < 100 nM
8 | CC(C)Nc1nc(Nc2ccnc(C3(C)CC3)c2)nc(-c2cccc(C(F)(F)F)n2)n1 [Compound 581, N-Isopropyl-N′-[2-(1-methyl-cyclopropyl)-pyridin-4-yl]-6-(6-trifluoromethyl-pyridin-2-yl)-[1,3,5]triazine-2,4-diamine] | 100 to 1000 nM | < 100 nM |  | < 100 nM
9 | CC(C)Nc1nc(Nc2ccnc(C(F)(F)F)c2)nc(-c2cccc(C(C)(F)F)n2)n1 [Compound 582, 6-[6-(1,1-Difluoro-ethyl)-pyridin-2-yl]-N-isopropyl-N′-(2-trifluoromethyl-pyridin-4-yl)-[1,3,5]triazine-2,4-diamine] | 100 to 1000 nM | < 100 nM |  | < 100 nM
10 | CC(C)Nc1nc(Nc2cc(F)cc(F)c2)nc(-c2cccc(C(C)(F)F)n2)n1 [Compound 583, 6-(6-(1,1-difluoroethyl)pyridin-2-yl)-N2-(3,5-difluorophenyl)-N4-isopropyl-1,3,5-triazine-2,4-diamine] | 100 to 1000 nM | < 100 nM |  | < 100 nM
11 | CC(F)(F)c1cccc(-c2nc(NCC3CC3)nc(Nc3cc(F)cc(F)c3)n2)n1 [Compound 584, N2-(cyclopropylmethyl)-6-(6-(1,1-difluoroethyl)pyridin-2-yl)-N4-(3,5-difluorophenyl)-1,3,5-triazine-2,4-diamine] | 100 to 1000 nM | < 100 nM |  | < 100 nM
12 | CC(C)(C)Nc1nc(Nc2cc(F)cc(F)c2)nc(-c2cccc(C(C)(F)F)n2)n1 [Compound 585, N2-(tert-butyl)-6-(6-(1,1-difluoroethyl)pyridin-2-yl)-N4-(3,5-difluorophenyl)-1,3,5-triazine-2,4-diamine] | 100 to 1000 nM | < 100 nM |  | < 100 nM
13 | FC(F)(F)c1cc(Nc2nc(NC3CCOCC3)nc(-c3cccc(C(F)(F)F)n3)n2)ccn1 [Compound 587, N2-(tetrahydro-2H-pyran-4-yl)-6-(6-(trifluoromethyl)pyridin-2-yl)-N4-(2-(trifluoromethyl)pyridin-4-yl)-1,3,5-triazine-2,4-diamine] | 100 to 1000 nM | < 100 nM |  | < 100 nM
14 | OC1CCCC1Nc1nc(Nc2ccnc(C(F)(F)F)c2)nc(-c2cccc(C(F)(F)F)n2)n1 (stereo not drawn) [Compound 588, 2-((4-(6-(trifluoromethyl)pyridin-2-yl)-6-((2-(trifluoromethyl)pyridin-4-yl)amino)-1,3,5-triazin-2-yl)amino)cyclopentanol] | 100 to 1000 nM | 100 to 1000 nM |  | < 100 nM
15 | CC(C)(C)Nc1nc(Nc2cc(F)cc(S(C)(=O)=O)c2)nc(-c2cccc(C(F)(F)F)n2)n1 [Compound 592, N-tert-Butyl-N′-(3-fluoro-5-methanesulfonyl-phenyl)-6-(6-trifluoromethyl-pyridin-2-yl)-[1,3,5]triazine-2,4-diamine] | 100 to 1000 nM | 100 to 1000 nM |  | < 100 nM
16 | CS(=O)(=O)c1cc(F)cc(Nc2nc(NCC3CC3)nc(-c3cccc(C(F)(F)F)n3)n2)c1 [Compound 593, N-Cyclopropylmethyl-N′-(3-fluoro-5-methanesulfonyl-phenyl)-6-(6-trifluoromethyl-pyridin-2-yl)-[1,3,5]triazine-2,4-diamine] | 100 to 1000 nM | < 100 nM |  | < 100 nM
17 | CC(C)(O)CNc1nc(Nc2ccnc(C(F)(F)F)c2)nc(-c2cccc(C(C)(F)F)n2)n1 [Compound 594, 1-((4-(6-(1,1-difluoroethyl)pyridin-2-yl)-6-((2-(trifluoromethyl)pyridin-4-yl)amino)-1,3,5-triazin-2-yl)amino)-2-methylpropan-2-ol] | 100 to 1000 nM | 100 to 1000 nM |  | < 100 nM
18 | CC(F)(F)c1cccc(-c2nc(NCC3CC3)nc(Nc3ccnc(C(F)(F)F)c3)n2)n1 [Compound 595, N2-(cyclopropylmethyl)-6-(6-(1,1-difluoroethyl)pyridin-2-yl)-N4-(2-(trifluoromethyl)pyridin-4-yl)-1,3,5-triazine-2,4-diamine] | 100 to 1000 nM | < 100 nM |  | < 100 nM
19 | CC(C)(C)Nc1nc(Nc2ccnc(C(C)(F)F)c2)nc(-c2cccc(C(C)(F)F)n2)n1 [Compound 596, N2-(tert-butyl)-6-(6-(1,1-difluoroethyl)pyridin-2-yl)-N4-(2-(1,1-difluoroethyl)pyridin-4-yl)-1,3,5-triazine-2,4-diamine] | 100 to 1000 nM | < 100 nM |  | < 100 nM
20 | FC(F)(F)c1cc(Nc2nc(NCC3CC3)nc(-c3cccc(C(F)(F)F)n3)n2)ccn1 [Compound 597, N2-(cyclopropylmethyl)-6-(6-(trifluoromethyl)pyridin-2-yl)-N4-(2-(trifluoromethyl)pyridin-4-yl)-1,3,5-triazine-2,4-diamine] | 100 to 1000 nM | < 100 nM |  | < 100 nM
21 | Fc1cc(F)cc(Nc2nc(NCC3CC3)nc(-c3cccc(C(F)(F)F)n3)n2)c1 [Compound 598, N2-(cyclopropylmethyl)-N4-(3,5-difluorophenyl)-6-(6-(trifluoromethyl)pyridin-2-yl)-1,3,5-triazine-2,4-diamine] | 100 to 1000 nM | < 100 nM |  | < 100 nM
22 | CS(=O)(=O)c1cc(Cl)cc(Nc2nc(NCC3CC3)nc(-c3cccc(C(F)(F)F)n3)n2)c1 [Compound 599, N2-(3-chloro-5-(methylsulfonyl)phenyl)-N4-(cyclopropylmethyl)-6-(6-(trifluoromethyl)pyridin-2-yl)-1,3,5-triazine-2,4-diamine] | 100 to 1000 nM | < 100 nM |  | < 100 nM
23 | CC(C)(C)Nc1nc(Nc2cc(Cl)cc(S(C)(=O)=O)c2)nc(-c2cccc(C(F)(F)F)n2)n1 [Compound 600, N2-(tert-butyl)-N4-(3-chloro-5-(methylsulfonyl)phenyl)-6-(6-(trifluoromethyl)pyridin-2-yl)-1,3,5-triazine-2,4-diamine] | 100 to 1000 nM | < 100 nM |  | < 100 nM
